Where two headings read alike, the source gives them in different places.
What was measured:
[1] = target: T1, Recombinant STAT6 protein (STAT6 (W123-T658)) (Homo sapiens, UniProt P42226); experiment: STAT6 Fluorescence Polarization (FP) Assay; type: binding; conditions: probe 5-FAM-Ap[…]-NH2 2 nM, 45-minute incubation
T1 construct: Recombinant STAT6 protein (STAT6 (W123-T658))
T1 sequence (P42226 123-658): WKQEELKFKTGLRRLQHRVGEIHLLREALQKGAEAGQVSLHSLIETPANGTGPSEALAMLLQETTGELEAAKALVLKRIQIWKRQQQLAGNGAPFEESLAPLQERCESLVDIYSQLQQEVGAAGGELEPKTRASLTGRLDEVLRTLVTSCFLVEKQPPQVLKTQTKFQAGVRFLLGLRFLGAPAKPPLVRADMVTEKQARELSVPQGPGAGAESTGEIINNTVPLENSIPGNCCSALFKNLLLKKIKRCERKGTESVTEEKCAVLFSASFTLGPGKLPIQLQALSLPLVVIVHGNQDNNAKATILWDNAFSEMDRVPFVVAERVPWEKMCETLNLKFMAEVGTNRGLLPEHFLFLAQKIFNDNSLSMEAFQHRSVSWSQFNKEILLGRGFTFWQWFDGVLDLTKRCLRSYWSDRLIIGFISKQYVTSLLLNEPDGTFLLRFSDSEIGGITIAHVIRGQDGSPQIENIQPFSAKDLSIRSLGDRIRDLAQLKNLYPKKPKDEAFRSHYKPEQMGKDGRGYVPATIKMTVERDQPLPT
Procedure, shortened: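 Fluorescence polarization (mP) read-out: 250 nM STAT6 (W123-T658) plus 2 nM 5-FAM phosphotyrosine peptide, 45 min, room temperature, 1% DMSO. IC50 by nonlinear fit of mP against log compound concentration.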

[2] = target: T2, Recombinant STAT3 protein (STAT3 (G127-I722)) (Homo sapiens, UniProt P40763); experiment: STAT3 Fluorescence Polarization (FP) Assay; type: binding; conditions: probe 5-FAM-GpYLPQTV-NH2 2 nM, 45-minute incubation
T2 construct: Recombinant STAT3 protein (STAT3 (G127-I722))
T2 sequence (P40763 127-722): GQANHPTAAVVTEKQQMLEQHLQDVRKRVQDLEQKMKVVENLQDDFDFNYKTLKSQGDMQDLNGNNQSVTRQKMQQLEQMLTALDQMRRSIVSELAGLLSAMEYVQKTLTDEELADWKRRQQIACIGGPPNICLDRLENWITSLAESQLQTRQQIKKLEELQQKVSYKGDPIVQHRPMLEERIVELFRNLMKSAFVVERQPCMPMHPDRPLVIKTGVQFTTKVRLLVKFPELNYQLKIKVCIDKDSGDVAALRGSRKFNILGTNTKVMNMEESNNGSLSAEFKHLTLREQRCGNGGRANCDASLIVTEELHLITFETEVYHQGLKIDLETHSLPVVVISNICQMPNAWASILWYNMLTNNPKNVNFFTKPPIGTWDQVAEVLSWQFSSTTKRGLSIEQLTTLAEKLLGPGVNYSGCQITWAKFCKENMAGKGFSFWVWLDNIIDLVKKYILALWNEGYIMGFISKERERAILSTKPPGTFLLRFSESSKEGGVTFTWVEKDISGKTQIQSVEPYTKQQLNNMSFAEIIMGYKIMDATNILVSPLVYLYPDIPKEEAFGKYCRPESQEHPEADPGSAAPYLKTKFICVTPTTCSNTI
Procedure, shortened: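 Displacement of a 2 nM 5-FAM-labelled pY peptide (GpYLPQTV) from 25 nM recombinant STAT3 (G127-I722) was monitored by fluorescence polarization. Incubation lasted 45 min at room temperature in pH 7.4 HEPES buffer containing 1% DMSO.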

[3] = STAT6 (W123-T658) 250 nM, read-out: STAT6 (FP assay IC50 class)
[4] = STAT3 (G127-I722) 25 nM, read-out: STAT3 (FP assay IC50 class)
[5] = STAT6 250 nM, read-out: STAT6 (FP assay IC50)
[6] = STAT3 25 nM, read-out: STAT3 (FP assay IC50)

SMILES | IC50 [1, 3] [µM] | IC50 [2, 4] [µM] | IC50 [1, 5] [µM] | IC50 [2, 6] [µM]
O=C(N[C@H]1CCC[C@H]2CC[C@@H](C(=O)N3CC(c4cccnc4)CC34CC4)N2C1=O)c1ccc2ccc(C(F)P(=O)(O)O)cc2c1 (stereo partly drawn) [Compound 904, (fluoro(7-(((3S,6S,9aS)-5-oxo-3-(6-(pyridin-3-yl)-4-azaspiro[2.4]heptane-4-carbonyl)octahydro-1H-pyrrolo[1,2-a]azepin-6-yl)carbamoyl)naphthalen-2-yl)methyl) phosphonic acid] | 0.3 to 3 | 1 to 10 | – | –
N#Cc1cccc(C2CN(C(=O)[C@@H]3CC[C@@H]4CCC[C@H](NC(=O)c5cc6cc(CP(=O)(O)O)ccc6s5)C(=O)N43)C2)n1 [Compound 653, ((2-(((3S,6S,9aS)-3-(3-(6-cyanopyridin-2-yl)azetidine-1-carbonyl)-5-oxooctahydro-1H-pyrrolo[1,2-a]azepin-6-yl)carbamoyl)benzo [b]thiophen-5-yl)methyl) phosphonic acid] | 3 to 30 | 0.1 to 1 | – | –
C/C1=C/[C@H]2CC[C@@H](C(=O)N3CC(c4cnccc4C)C3)N2C(=O)[C@@H](NC(=O)c2cc3cc(C(F)(F)P(=O)(O)O)ccc3s2)CC1 [Compound 643, (difluoro(2-(((3S,6S,10aR,Z)-9-methyl-3-(3-(4-methylpyridin-3-yl)azetidine-1-carbonyl)-5-oxo-1,2,3,5,6,7,8,10a-octahydropyrrolo[1,2-a]azocin-6-yl)carbamoyl)benzo [b]thiophen-5-yl)methyl) phosphonic acid] | 0.3 to 3 | < 0.1 | – | –
COCC1(c2ncccn2)CN(C(=O)[C@@H]2CC[C@@H]3CCCC[C@H](NC(=O)c4cc5cc(C(F)(F)P(=O)(O)O)ccc5s4)C(=O)N32)C1 [Compound 654, (difluoro(2-(((3S,6S,10aS)-3-(3-(methoxymethyl)-3-(pyrimidin-2-yl)azetidine-1-carbonyl)-5-oxodecahydropyrrolo [1,2-a]azocin-6-yl)carbamoyl)benzo [b]thiophen-5-yl)methyl) phosphonic acid] | 3 to 30 | 0.1 to 1 | – | –
O=C(N[C@H]1CCC[C@H]2CC[C@@H](C(=O)N3CC(c4cnccc4O)C3)N2C1=O)c1cc2cc(C(F)P(=O)(O)O)ccc2s1 (stereo partly drawn) [Compound 540, (fluoro(2-(((3S,6S,9aS)-3-(3-(4-hydroxypyridin-3-yl)azetidine-1-carbonyl)-5-oxooctahydro-1H-pyrrolo[1,2-a]azepin-6-yl)carbamoyl)benzo[b]thiophen-5-yl)methyl)phosphonic acid] | 0.3 to 3 | < 0.1 | – | –
O=C(N[C@H]1CCC[C@H]2CC[C@@H](C(=O)N3CC(c4ccccc4F)C3)N2C1=O)c1cc2cc(C(F)P(=O)(O)O)ccc2s1 (stereo partly drawn) [Compound 565, (fluoro(2-(((3S,6S,9aS)-3-(3-(2-fluorophenyl)azetidine-1-carbonyl)-5-oxooctahydro-1H-pyrrolo[1,2-a]azepin-6-yl)carbamoyl)benzo[b]thiophen-5-yl)methyl)phosphonic acid] | 3 to 30 | 0.1 to 1 | – | –
O=C(N[C@H]1CCCC[C@H]2CC[C@@H](C(=O)N3CC(C4CCOCC4)C3)N2C1=O)c1cc2cc(C(F)(F)P(=O)(O)O)ccc2s1 [Compound 118A, (difluoro(2-(((3S,6S,10a S)-5-oxo-3-(3-(tetrahydro-2H-pyran-4-yl)azetidine-1-carbonyl)decahydropyrrolo-[1,2a]azocin-6-yl)carbamoyl)benzo[b]thiophen-5-yl)methyl) phosphonic acid] | – | – | 3 to 30 | 0.1 to 1
O=C(NC1CCCC[C@H]2CC[C@@H](C(=O)N3CC(c4ccccc4)CC34CC4)N2C1=O)c1cc2cc(C(F)(F)P(=O)(O)O)ccc2s1 (stereo partly drawn) [Compound 89, (difluoro(2-(((3S,10aS)-5-oxo-3-(6-phenyl-4-azaspiro[2.4]heptane-4-carbonyl)decahydropyrrolo [1,2-a]azocin-6-yl)carbamoyl)benzo[b]thiophen-5-yl)methyl) phosphonic acid] | – | – | ≤ 0.3 | 1 to 10
O=C(N[C@H]1CCC[C@H]2CC[C@@H](C(=O)N3CC(c4cnccc4OC4COC4)C3)N2C1=O)c1cc2cc(C(F)P(=O)(O)O)ccc2s1 (stereo partly drawn) [Compound 598, (fluoro(2-(((3S,6S,9aS)-3-(3-(4-(oxetan-3-yloxy)pyridin-3-yl)azetidine-1-carbonyl)-5-oxooctahydro-1H-pyrrolo[1,2-a]azepin-6-yl)carbamoyl)benzo [b]thiophen-5-yl)methyl) phosphonic acid] | 3 to 30 | < 0.1 | – | –
Cn1cnnc1C1(O)CN(C(=O)[C@@H]2CC[C@@H]3CCC[C@H](NC(=O)c4cc5cc(C(F)(F)P(=O)(O)O)ccc5s4)C(=O)N32)C1 [Compound 807, (difluoro(2-(((3S,6S,9aS)-3-(3-hydroxy-3-(4-methyl-4H-1,2,4-triazol-3-yl)azetidine-1-carbonyl)-5-oxooctahydro-1H-pyrrolo[1,2-a]azepin-6-yl)carbamoyl)benzo [b]thiophen-5-yl)methyl) phosphonic acid] | 0.3 to 3 | 0.1 to 1 | – | –
O=Cc1ccncc1C1CN(C(=O)[C@@H]2CC[C@@H]3CCC[C@H](NC(=O)c4cc5cc(CP(=O)(O)O)ccc5s4)C(=O)N32)C1 [Compound 545, ((2-(((3S,6S,9aS)-3-(3-(4-formylpyridin-3-yl)azetidine-1-carbonyl)-5-oxooctahydro-1H-pyrrolo[1,2-a]azepin-6-yl)carbamoyl)benzo[b]thiophen-5-yl)methyl)phosphonic acid] | 3 to 30 | 1 to 10 | – | –

Next, values leading:

IC50 [1, 3] [µM] | IC50 [2, 4] [µM] | IC50 [1, 5] [µM] | IC50 [2, 6] [µM] | SMILES
3 to 30 | 0.1 to 1 | – | – | O=C(N[C@H]1CCCC[C@H]2CC[C@@H](C(=O)N[C@H](CO)Cc3cccnc3)N2C1=O)c1cc2cc(C(F)(F)P(=O)(O)O)ccc2s1 [Compound 725, (difluoro(2-(((3S,6S,10aS)-3-(((S)-1-hydroxy-3-(pyridin-3-yl)propan-2-yl)carbamoyl)-5-oxodecahydropyrrolo [1,2-a]azocin-6-yl)carbamoyl)benzo [b]thiophen-5-yl)methyl) phosphonic acid]
3 to 30 | 1 to 10 | – | – | Cn1ccc(=O)c(C2CN(C(=O)[C@@H]3CC[C@@H]4CCC[C@H](NC(=O)c5cc6cc(CP(=O)(O)O)ccc6s5)C(=O)N43)C2)c1 [Compound 584, ((2-(((3S,6S,9aS)-3-(3-(1-methyl-4-oxo-1,4-dihydropyridin-3-yl)azetidine-1-carbonyl)-5-oxooctahydro-1H-pyrrolo[1,2-a]azepin-6-yl)carbamoyl)benzo[b]thiophen-5-yl)methyl)phosphonic acid]
3 to 30 | < 0.1 | – | – | COC[C@@H]1CCN1c1ccncc1C1CN(C(=O)[C@@H]2CC[C@@H]3CCC[C@H](NC(=O)c4cc5cc([C@@H](F)P(=O)(O)O)ccc5s4)C(=O)N32)C1 [Compound 926, ((S)-fluoro(2-(((3S,6S,9aS)-3-(3-(4-((S)-2-(methoxymethyl)azetidin-1-yl)pyridin-3-yl)azetidine-1-carbonyl)-5-oxooctahydro-1H-pyrrolo[1,2-a]azepin-6-yl)carbamoyl)benzo [b]thiophen-5-yl)methyl) phosphonic acid]
≤ 0.3 | 1 to 10 | – | – | N#C[C@@H]1[C@@H](c2ccccc2)CN(C(=O)[C@@H]2CC[C@@H]3CCCC[C@H](NC(=O)c4cc5cc([C@@H](F)P(=O)(O)O)ccc5s4)C(=O)N32)C12CC2 (single isomer, unassigned) [Compound 923]
3 to 30 | 1 to 10 | – | – | Cc1cncnc1C1CN(C(=O)[C@@H]2CC[C@@H]3CCC[C@H](NC(=O)c4cc5cc(CP(=O)(O)O)ccc5s4)C(=O)N32)C1 [Compound 650, ((2-(((3S,6S,9aS)-3-(3-(5-methylpyrimidin-4-yl)azetidine-1-carbonyl)-5-oxooctahydro-1H-pyrrolo[1,2-a]azepin-6-yl)carbamoyl)benzo [b]thiophen-5-yl)methyl) phosphonic acid]
3 to 30 | 0.1 to 1 | – | – | Cc1ccncc1C1CN(C(=O)[C@@H]2CC[C@@H]3C[C@@H](C)CC[C@H](NC(=O)c4cc5cc(CP(=O)(O)O)ccc5s4)C(=O)N32)C1 [Compound 655, ((2-(((3S,6S,9S,10aR)-9-methyl-3-(3-(4-methylpyridin-3-yl)azetidine-1-carbonyl)-5-oxodecahydropyrrolo [1,2-a]azocin-6-yl)carbamoyl)benzo [b]thiophen-5-yl)methyl) phosphonic acid]

From patent US20250215029A1 (Recludix Pharma, Inc., priority 2022, published 2025)
